For data set [1], the target named is T1, pDNA-PK ser2056 induction in HCT116 spheroids (Homo sapiens, UniProt P78527).
T1 construct: endogenous in cells; host or cells: HCT116 multicellular tumour spheroids
As to the kind of experiment: Multicellular tumour spheroid + radiation, pDNA-PK inhibition, HCT116. Type of data set: cell-based. The settings on record: 20 Gy. A digest of the protocol: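 HCT116 spheroids (~0.5 mm) in MEM/10% FBS/10 mM glucose, 20% O2, 37 °C, pre-incubated 1 h with compound (10 or 5 μM down to 3.5 nM), irradiated 20 Gy, incubated 2 h more. Cryosections immunostained for pDNA-PK ser2056; EC50 (μM) for 50% reduction of radiation-induced pDNA-PK.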

The test system of a further data set is HCT116 spheroids. As to the kind of experiment: Spheroid + radiation colony forming cell survival assay (SF), HCT116. Type of data set: cell-based. The settings on record: 8 Gy. As for the experimental part: (§1) Multicellular tumour spheroids determination of compound inhibition of pDNA-PK induction following radiation. Tumour spheroids were grown to approximately 0.5 mm in diameter and irradiated with 20 Gy in combination with inhibitor test compounds to determine their potency. Inhibitor concentration for 50% reduction in pDNA-PK induction (IC50) was determined via immunohistochemical staining in spheroid cryosections taken 2 hours following radiation. For cell survival endpoint 8 Gy radiation was used and 3 hours following radiation spheroids were dissociated, counted and plated for colony forming endpoint.
Spheroid+radiation colony forming cell survival assay (SF). Radiation 8 Gy. Drug: serial dilution 5 μM down to 10 nM (12 wells×2 repeat). Spheroids: 5-10 spheroids per well ([…]). HCT116. 5% O2 and 5% CO2. 96 well pate format for assay. Protocol: pre incubate 1 hour with drug, irradiate 8 Gy, post incubate 3 hrs with drug, dissociate spheroids and count cells and plate for colony forming assay. Endpoint: wait 4-7 days and count colonies. Analysis: determine EC50 concentration that increase cell kill by 50% over radiation alone.
(§2) Multicellular tumour spheroids were used to determine potency of test compounds in a 3D tissue environment using inhibition of pDNA-PK induction following radiation or cell survival as the endpoint. For the pDNA-PK endpoint HCT116 or FaDU tumour spheroids were grown to approximately 0.5 mm in diameter and irradiated with 20 Gy in combination with inhibitor test compounds to determine their potency. Experiments were carried out in 96 well plates containing 0.7 mls of MEM media containing 10% FBS and 10 mM glucose under 20% O2 & 5% CO2 at 37° C. Following dilution of compounds 1:1000 from DMSO stocks, compounds were serially diluted from 10 μM down to 3.5 nM and 5-10 spheroids added. 96 well plates were constantly stirred to avoid spheroids settling during the course of the experiment. The inhibitor concentration for 50% reduction in pDNA-PK induction (EC50) was determined via immunohistochemical staining in spheroid cryosections taken 2 hours following radiation using anti-pDNA-PK (ser 2056) and fixed immediately in formalin following sectioning. For cell survival endpoint 8 Gy radiation was used and, 3 hours following radiation, spheroids were dissociated, counted and plated for colony forming endpoint. Data presented in the table compound potency as EC50 [μM].

Data set [2] in a line: Microsomal stability assay, mouse liver microsomes. The conditions noted are these: for microsomal CLint at 0.1 uM: male, CD-1, mouse, liver microsomes, pH 7.4, Microsomal Stability Mouse Clint, 0.1 mg/mL microsomes, 0.1 uM compound.
The target in data set [3] is T2, pDNA-PK ser2056 induction in FaDU spheroids (Homo sapiens, UniProt P78527).
T2 construct: host or cells: FaDu
Briefly: Multicellular tumour spheroid + radiation, pDNA-PK inhibition, FaDU. Type of data set: cell-based. The settings on record: 20 Gy. As for the experimental part: as §1
Spheroid+radiation pDNA-PK. Radiation: 20 Gy. Drug: serial dilution 5 or 10 μM down to 3.5 nM (11 wells). Spheroids: 3-6 spheroids per well (300-500 μm diameter). 20% O2 and 5% CO2. 96 well plate format. Endpoint: fluorescent immunostain pDNA-PK ser2056 and image on microscope. Analysis: determine EC50 concentrations that decreases pDNA-PK induction […] after irradiation.
as §2

Where [4] appears, read: Example 7, spheroid, cell line HCT115 [sic], 20% O2, read-out: EC50 (pDNA-PK inhibition, immunohistochemical endpoint).
Setting [5] is: Example 8, spheroid, read-out: Cell line: HCT116 Immunohistochemical endpoint pDNA-PK inhibition EC50.
[6] abbreviates: Example 9 Study 2, 20% O2, read-out: Spheroid Cell line: HCT116 Immunohistochemical endpoint pDNA-PK inhibition EC50.
Where [7] appears, read: Example 8, spheroid, read-out: Cell line: HCT116 Colony forming endpoint Surviving Fraction EC50.
Where [8] appears, read: Example 9 Study 2, read-out: Spheroid Cell line: HCT116 Colony forming endpoint Surviving Fraction EC50.
The mark [9] stands for this setting: Example 8, spheroid, read-out: Cell line: FaDU Immunohistochemical endpoint pDNA-PK inhibition EC50.
Setting [10] is: Example 9 Study 2, 20% O2, read-out: Spheroid Cell line: FaDU Immunohistochemical endpoint pDNA-PK inhibition EC50.

Where two headings read alike, the source gives them in different places. Where only a bound is given, the exact number is not on record here.

Broadly, the EC50 is the concentration at which the effect is half-maximal. In general, microsomal CLint refers to the rate of metabolic loss divided by the concentration. High values mean faster metabolism, low ones greater metabolic stability. Regarding `Fc1cn([C@H]2CC[C@@H](Oc3nc(N4CCOCC4)cc4ncccc34)CC2)cn1` [Compound 17a, 4-(5-(((1s,4s)-4-(4-fluoro-1H-imidazol-1-yl)cyclohexyl)oxy)-1,6-naphthyridin-7-yl)morpholine], the EC50 fell in the range of 1000 to 10000 nM in data set [1] (setting [4]); 1000 to 10000 nM in data set [1] (setting [5]); 1000 to 10000 nM in data set [1] (setting [6]); 10 to 500 nM in the data set on HCT116 spheroids (setting [7]); 10 to 500 nM in the data set with HCT116 spheroids (setting [8]); 500 to 1000 nM in data set [3] (setting [9]). For the same compound, in data set [3] (setting [10]), the EC50 fell in the range of 500 to 1000 nM. For the same compound, the “Microsomal Stability (mouse) % rem. 60 min” value in data set [2] is “E (% remaining = 0-25%)”. Also, in data set [2], the microsomal CLint at 0.1 uM was over 116 µL/min/mg.

For `FC(F)(F)c1cncn1[C@H]1CC[C@@H](Oc2nc(N3CCOCC3)cc3ncccc23)CC1` [Compound 17j, 4-(5-(((1s,4s)-4-(5-(trifluoromethyl)-1H-imidazol-1-yl)cyclohexyl)oxy)-1,6-naphthyridin-7-yl)morpholine], the EC50 (in data set [1] (setting [4]); in data set [1] (setting [5]); in data set [1] (setting [6]); with HCT116 spheroids (setting [7]); in the data set on HCT116 spheroids (setting [8]); in data set [3] (setting [9])) was 500 to 1000 nM each time. Further, the EC50 in data set [3] (setting [10]) was in the range of 500 to 1000 nM. In addition, in data set [2], the “Microsomal Stability (mouse) % rem. 60 min” value was “E (% remaining = 0-25%)”. This compound came in with a microsomal CLint at 0.1 uM in data set [2] of over 116 µL/min/mg.

For `Oc1cnc2cc(N3CCOCC3)nc(O[C@H]3CC[C@@H](Nc4ncccn4)CC3)c2c1` [Compound 19a, 7-Morpholino-5-(((1s,4s)-4-(pyrimidin-2-ylamino)cyclohexyl)oxy)-1,6-naphthyridin-3-ol], the concentration for a half-maximal effect (EC50) (in data set [1] (setting [4]); in data set [1] (setting [5]); in data set [1] (setting [6]); with HCT116 spheroids (setting [7]); in the data set with HCT116 spheroids (setting [8]); in data set [3] (setting [9])) was 500 to 1000 nM in each case. In data set [3] (setting [10]), the EC50 fell in the range of 500 to 1000 nM. For the same compound, in data set [2], the “Microsomal Stability (mouse) % rem. 60 min” value was “F (% remaining = 25-50%)”. The microsomal CLint at 0.1 uM in data set [2] was over 116 µL/min/mg.

Take `COc1cnc(N[C@H]2CC[C@@H](Oc3nc(N4CCOCC4)cc4ncc(O)cc34)CC2)nc1` [Compound 19c, 5-(((1s,4s)-4-((5-Methoxypyrimidin-2-yl)amino)cyclohexyl)oxy)-7-morpholino-1,6-naphthyridin-3-ol]: the EC50 in data set [1] (setting [4]) fell in the range of 1000 to 10000 nM; in data set [1] (setting [5]), 1000 to 10000 nM; in data set [1] (setting [6]) it was 1000 to 10000 nM; in the data set with HCT116 spheroids (setting [7]) it was 10 to 500 nM; in the data set on HCT116 spheroids (setting [8]), 10 to 500 nM; in data set [3] (setting [9]), 500 to 1000 nM. Further, in data set [3] (setting [10]), the EC50 was in the range of 500 to 1000 nM.

`Cc1cnc(N[C@H]2CC[C@@H](Oc3nc(N4CCOCC4)cc4ncccc34)CC2)nc1` [Compound 32, 5-Methyl-N-((1s,4s)-4-((7-morpholino-1,6-naphthyridin-5-yl)oxy)cyclohexyl)pyrimidin-2-amine]: the EC50 in data set [1] (setting [4]) was in the range of 1000 to 10000 nM; in data set [1] (setting [5]) it was 1000 to 10000 nM; in data set [1] (setting [6]), 1000 to 10000 nM; in the data set with HCT116 spheroids (setting [7]) it was 10 to 500 nM; in the data set on HCT116 spheroids (setting [8]), 10 to 500 nM; in data set [3] (setting [9]) it was 500 to 1000 nM. Moreover, in data set [3] (setting [10]), the EC50 was 500 to 1000 nM. Further, the “Microsomal Stability (mouse) % rem. 60 min” value in data set [2] is reported as “E (% remaining = 0-25%)”. Further, in data set [2], the microsomal CLint at 0.1 uM was over 116 µL/min/mg.

In the case of `FC(F)(F)c1cnc(N[C@H]2CC[C@@H](Oc3nc(N4CCOCC4)cc4ncccc34)CC2)nc1` [Compound 34, N-((1s,4s)-4-((7-Morpholino-1,6-naphthyridin-5-yl)oxy)cyclohexyl)-5-(trifluoromethyl)pyrimidin-2-amine], the EC50 (in data set [1] (setting [4]); in data set [1] (setting [5]); in data set [1] (setting [6]); in the data set on HCT116 spheroids (setting [7]); in the data set on HCT116 spheroids (setting [8]); in data set [3] (setting [9])) was 1000 to 10000 nM throughout. Further, the EC50 in data set [3] (setting [10]) lay in the range of 1000 to 10000 nM. For the same compound, in data set [2], the “Microsomal Stability (mouse) % rem. 60 min” value is reported as “E (% remaining = 0-25%)”. In data set [2], this compound registered a microsomal CLint at 0.1 uM of over 116 µL/min/mg.

The values are drawn from patent US20240246960A1 (adMare Therapeutics Society, priority 2021, published 2024).
